# Experimental data published in patent US8945864B2, “Method of determining 1,5-anhydroglucitol, and reagent composition for determining 1,5-anhydroglucitol” (Ikeda Food Research Co., Ltd., priority 2006, dated 2015).
# Like-named read-outs stand apart in the source and are kept apart here.
# Experiments:
# sorbose dehydrogenase [1] = biological target: T1, sorbose dehydrogenase (Sinorhizobium meliloti, UniProt Q92YU0); assay: Inhibitor test: additive in the reaction solution for the activity measurement; type: biochemical, Sinorhizobium sp. 97507; conditions: for activity at 1000 µM: read-out: Relative activity (%)
# sorbose dehydrogenase [2] = biological target: T1, sorbose dehydrogenase; assay: Substrate specificity of sorbose dehydrogenase (relative reactivity, DCIP method); type: biochemical, Sinorhizobium sp. 97507
# Method: One mL of a 0.1 M potassium phosphate buffer, pH 7.0, 1.0 mL of 1.0 M L-sorbose, 0.14 mL of 3 mM 2,6-dichlorophenol indophenol (DCIP), 0.2 mL of 3 mM 1-methoxy-5-methylphenazinium methyl sulfate, and 0.61 mL of water were added to a 3 mL quartz cell, and the quartz cell was set to a spectrophotometer equipped with a thermostat cell holder, and incubated at 37° C. for ten minutes. Then, 0.05 mL of the enzyme solution was added to the quartz cell, and changes in absorbance of DCIP at 600 nm (AABS600/min) was measured at 37° C. As the molar extinction coefficient of DCIP at pH 7.0 is known as 16.3 mM^−1, and the amount of enzyme that reduced 1 μmol of DCIP for one minute is defined as one unit. Following the definition, the concentration of enzyme activity was calculated based on the following equation. enzyme activity (units/mL)=(−ΔABS600/min×3.0×dilution rate)/(16.3×1.0×0.05)
# Measurement conditions in the above “method of measuring enzyme activity” were suitably modified as necessary, and the optimal pH, pH stability, optimal temperature, temperature stability, substrate specificity, Km value, total molecular weight, subunit molecular weight, inhibitor, and product of the enzyme reaction were identified. The properties of the enzyme were evaluated in accordance with the following tests.
# […]. The results are shown as a relative value of each substrate with reference to the value of activity of L-sorbose as a standard.
# [3] = additive final concentration 1.0 mM, control without additive = 100%
# [4] = substrate 333 mM (lactose 167 mM)
# [5] = substrate final concentration 333 mM, relative to activity of L-sorbose as standard (100)
# [6] = substrate final concentration 333 mM, […]
# T1 sequence (Q92YU0 entry or part of it): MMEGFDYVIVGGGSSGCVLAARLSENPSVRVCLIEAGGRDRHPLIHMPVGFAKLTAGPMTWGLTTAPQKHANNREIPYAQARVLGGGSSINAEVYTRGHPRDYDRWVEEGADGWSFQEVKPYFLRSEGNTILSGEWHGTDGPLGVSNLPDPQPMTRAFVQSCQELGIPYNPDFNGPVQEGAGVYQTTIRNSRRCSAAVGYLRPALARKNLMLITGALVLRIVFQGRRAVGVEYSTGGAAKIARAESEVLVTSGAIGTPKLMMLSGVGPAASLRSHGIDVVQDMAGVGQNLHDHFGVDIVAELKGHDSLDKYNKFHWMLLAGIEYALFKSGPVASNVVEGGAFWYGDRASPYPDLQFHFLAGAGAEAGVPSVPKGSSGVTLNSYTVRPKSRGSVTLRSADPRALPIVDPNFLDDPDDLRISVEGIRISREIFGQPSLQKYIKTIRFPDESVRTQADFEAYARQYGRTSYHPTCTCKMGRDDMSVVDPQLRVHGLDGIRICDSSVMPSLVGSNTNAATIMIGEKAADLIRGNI
compound,measurement,setting,value
2-(p-)nitrobenzoic acid,Relative activity (%),sorbose dehydrogenase [1]; [3],75%
O=C(O)CC(O)C(=O)O (racemic) [DL-malic acid],Relative activity (%),sorbose dehydrogenase [1]; [3],85%
O=C(O)C(O)C(O)C(=O)O (racemic) [DL-tartaric acid],Relative activity (%),sorbose dehydrogenase [1]; [3],86%
"OC[C@H]1OC[C@H](O)[C@@H](O)[C@@H]1O [1,5-anhydroglucitol]",Effect of the sorbose dehydrogenase on the substrate (in words),sorbose dehydrogenase [2]; [4],strong effect
same,Relative activity (%),sorbose dehydrogenase [2]; [5],79.1%
"c1cnc2c(c1)ccc1cccnc12 [1,10-phenanthroline]",activity at 1000 µM,sorbose dehydrogenase [1]; [3],77%
CCCCO [1-butanol],Effect of the sorbose dehydrogenase on the substrate (in words),sorbose dehydrogenase [2],weak effect
same,Relative activity (%),sorbose dehydrogenase [2],1.29%
CCCO [1-propanol],Effect of the sorbose dehydrogenase on the substrate (in words),sorbose dehydrogenase [2]; [4],little effect
same,Relative activity (%),sorbose dehydrogenase [2]; [5],0.75%
"c1ccc(-c2ccccn2)nc1 [2,2′-bipyridine]",activity at 1000 µM,sorbose dehydrogenase [1]; [3],88%
"CC(O)C(C)O (centres unmarked) [2,3-butanediol]",Effect of the sorbose dehydrogenase on the substrate (in words),sorbose dehydrogenase [2],little effect
same,Relative activity (%),sorbose dehydrogenase [2],0.26%
CCC(C)O (centres unmarked) [2-butanol],Effect of the sorbose dehydrogenase on the substrate (in words),sorbose dehydrogenase [2],little effect
CC(C)CO [2-methyl-1-propanol],Effect of the sorbose dehydrogenase on the substrate (in words),sorbose dehydrogenase [2]; [4],weak effect
same,Relative activity (%),sorbose dehydrogenase [2]; [5],2.06%
CCCC(C)O (centres unmarked) [2-pentanol],Effect of the sorbose dehydrogenase on the substrate (in words),sorbose dehydrogenase [2]; [4],little effect
CC(C)O [2-propanol],Effect of the sorbose dehydrogenase on the substrate (in words),sorbose dehydrogenase [2]; [4],little effect
same,Relative activity (%),sorbose dehydrogenase [2]; [5],0.39%
Oc1cccc2cccnc12 [8-quinolinol],Relative activity (%),sorbose dehydrogenase [1],106%
[Cl][Al]([Cl])[Cl] [AlCl3],Relative activity (%),sorbose dehydrogenase [1]; [3],109%
C=CCO [Allyl alcohol],Effect of the sorbose dehydrogenase on the substrate (in words),sorbose dehydrogenase [2]; [4],weak effect
same,Relative activity (%),sorbose dehydrogenase [2]; [6],3.80%
NN=C(N)N.O=S(=O)(O)O [Aminoguanidine sulfate],Relative activity (%),sorbose dehydrogenase [1],91%
[Ba+2].[Cl-].[Cl-] [BaCl2],Relative activity (%),sorbose dehydrogenase [1]; [3],80%
O=C(O)c1ccccc1 [Benzoic acid],activity at 1000 µM,sorbose dehydrogenase [1],101%
[Ca+2].[Cl-].[Cl-] [CaCl2],Relative activity (%),sorbose dehydrogenase [1],92%
[Cl][Cd][Cl] [CdCl2],Relative activity (%),sorbose dehydrogenase [1],91%
O=C(O)CC(O)(CC(=O)O)C(=O)O [Citric acid],activity at 1000 µM,sorbose dehydrogenase [1],86%
[Cl][Cu][Cl] [CuCl2],Relative activity (%),sorbose dehydrogenase [1]; [3],0%
same,Inhibition of the sorbose dehydrogenase (in words),"sorbose dehydrogenase [1]; heavy metal ions, 1 mM",remarkably inhibited
O=C[C@H](O)[C@@H](O)[C@@H](O)[C@H](O)CO [D-(+)-galactose],Effect of the sorbose dehydrogenase on the substrate (in words),sorbose dehydrogenase [2]; [4],weak effect
same,Relative activity (%),sorbose dehydrogenase [2]; [6],1.69%
O=C[C@H](O)[C@@H](O)[C@H](O)[C@H](O)CO [D-(+)-glucose],Effect of the sorbose dehydrogenase on the substrate (in words),sorbose dehydrogenase [2]; [4],weak effect
same,Relative activity (%),sorbose dehydrogenase [2]; [6],1.22%
O=C[C@@H](O)[C@@H](O)[C@H](O)[C@H](O)CO [D-(+)-mannose],Effect of the sorbose dehydrogenase on the substrate (in words),sorbose dehydrogenase [2]; [4],little effect
same,Relative activity (%),sorbose dehydrogenase [2]; [6],0.15%
O=C(CO)[C@@H](O)[C@H](O)[C@H](O)CO [D-(−)-fructose],Effect of the sorbose dehydrogenase on the substrate (in words),sorbose dehydrogenase [2]; [4],little effect
same,Relative activity (%),sorbose dehydrogenase [2]; [6],0%
O=C(CO)[C@H](O)[C@@H](O)[C@H](O)CO [D-(−)-sorbose],Effect of the sorbose dehydrogenase on the substrate (in words),sorbose dehydrogenase [2]; [4],weak effect
same,Relative activity (%),sorbose dehydrogenase [2]; [6],2.96%
OC[C@H]1O[C@@H](O[C@H]2[C@H](O)[C@@H](O)[C@H](O)O[C@@H]2CO)[C@H](O)[C@@H](O)[C@@H]1O [D-cellobiose],Effect of the sorbose dehydrogenase on the substrate (in words),sorbose dehydrogenase [2]; [4],little effect
N[C@@H]1CONC1=O [D-cycloserine],Relative activity (%),sorbose dehydrogenase [1]; [3],90%
OC[C@@H](O)[C@@H](O)[C@H](O)[C@H](O)CO [D-mannitol],Effect of the sorbose dehydrogenase on the substrate (in words),sorbose dehydrogenase [2]; [4],little effect
OC[C@H]1O[C@H](OC[C@H]2O[C@H](O[C@]3(CO)O[C@H](CO)[C@@H](O)[C@@H]3O)[C@H](O)[C@@H](O)[C@@H]2O)[C@H](O)[C@@H](O)[C@H]1O [D-raffinose],Effect of the sorbose dehydrogenase on the substrate (in words),sorbose dehydrogenase [2]; [4],little effect
O=C[C@H](O)[C@H](O)[C@H](O)CO [D-ribose],Effect of the sorbose dehydrogenase on the substrate (in words),sorbose dehydrogenase [2]; [4],little effect
OC[C@@H](O)[C@@H](O)[C@H](O)[C@@H](O)CO [D-sorbitol],Effect of the sorbose dehydrogenase on the substrate (in words),sorbose dehydrogenase [2]; [4],little effect
OC[C@H]1O[C@H](O[C@H]2O[C@H](CO)[C@@H](O)[C@H](O)[C@H]2O)[C@H](O)[C@@H](O)[C@@H]1O [D-trehalose],Effect of the sorbose dehydrogenase on the substrate (in words),sorbose dehydrogenase [2]; [4],little effect
O=C[C@H](O)[C@@H](O)[C@H](O)CO [D-xylose],Effect of the sorbose dehydrogenase on the substrate (in words),sorbose dehydrogenase [2]; [4],little effect
O=C([O-])CN(CCN(CC(=O)O)CC(=O)O)CC(=O)[O-].[Na+].[Na+] [EDTA-2Na],Relative activity (%),sorbose dehydrogenase [1],102%
CCO [Ethanol],Effect of the sorbose dehydrogenase on the substrate (in words),sorbose dehydrogenase [2],little effect
same,Relative activity (%),sorbose dehydrogenase [2],0%
[Cl][Fe]([Cl])[Cl] [FeCl3],Relative activity (%),sorbose dehydrogenase [1]; [3],89%
O=C(O)/C=C/C(=O)O [Fumaric acid],activity at 1000 µM,sorbose dehydrogenase [1],99%
OCC(O)CO [Glycerol],Effect of the sorbose dehydrogenase on the substrate (in words),sorbose dehydrogenase [2]; [4],little effect
same,Relative activity (%),sorbose dehydrogenase [2]; [6],0%
OO [H2O2],Relative activity (%),sorbose dehydrogenase [1],98%
[Cl][Hg][Cl] [HgCl2],Relative activity (%),sorbose dehydrogenase [1]; [3],0%
same,Inhibition of the sorbose dehydrogenase (in words),"sorbose dehydrogenase [1]; heavy metal ions, 1 mM",remarkably inhibited
O=C(O)CI [Iodoacetic acid],activity at 1000 µM,sorbose dehydrogenase [1],83%
O=C[C@H](O)[C@@H](O)[C@@H](O)CO [L-arabinose],Effect of the sorbose dehydrogenase on the substrate (in words),sorbose dehydrogenase [2]; [4],little effect
C[C@H](O)[C@H](O)[C@@H](O)[C@@H](O)C=O [L-rhamnose],Effect of the sorbose dehydrogenase on the substrate (in words),sorbose dehydrogenase [2]; [4],little effect
OC[C@H]1O[C@@H](O[C@H]2[C@H](O)[C@@H](O)C(O)O[C@@H]2CO)[C@H](O)[C@@H](O)[C@H]1O (some centres unmarked) [Lactose],Effect of the sorbose dehydrogenase on the substrate (in words),sorbose dehydrogenase [2]; [4],little effect
same,Relative activity (%),"sorbose dehydrogenase [2]; substrate final concentration 167 mM (lactose), […]",0.71%
[Cl-].[Li+] [LiCl],Relative activity (%),sorbose dehydrogenase [1]; [3],98%
O=C(O)/C=C\C(=O)O [Maleic acid],activity at 1000 µM,sorbose dehydrogenase [1],82%
OC[C@H]1O[C@H](O[C@H]2[C@H](O)[C@@H](O)[C@H](O)O[C@@H]2CO)[C@H](O)[C@@H](O)[C@@H]1O [Maltose],Effect of the sorbose dehydrogenase on the substrate (in words),sorbose dehydrogenase [2]; [4],little effect
same,Relative activity (%),sorbose dehydrogenase [2]; [6],0%
[Cl-].[Cl-].[Mg+2] [MgCl2],Relative activity (%),sorbose dehydrogenase [1],93%
[Cl][Mn][Cl] [MnCl2],Inhibition of the sorbose dehydrogenase (in words),sorbose dehydrogenase [1],remarkably inhibited
same,Relative activity (%),sorbose dehydrogenase [1],11%
CCN1C(=O)C=CC1=O [N-ethylmaleimide],activity at 1000 µM,sorbose dehydrogenase [1]; [3],88%
[Cl-].[Na+] [NaCl],Relative activity (%),sorbose dehydrogenase [1],85%
[N-]=[N+]=[N-].[Na+] [NaN3],Relative activity (%),sorbose dehydrogenase [1],115%
[Cl][Ni][Cl] [NiCl2],Relative activity (%),sorbose dehydrogenase [1],80%
[Cl][Pb][Cl] [PbCl2],Relative activity (%),sorbose dehydrogenase [1],83%
[Cl][Sn][Cl] [SnCl2],Relative activity (%),"sorbose dehydrogenase [1]; additive final concentration 0.5 mM, control without additive = 100%",86%
O=S(=O)(O)c1cc(O)c(O)c(S(=O)(=O)O)c1 [Tiron],activity at 1000 µM,sorbose dehydrogenase [1]; [3],89%
NC(N)=O [Urea],Relative activity (%),sorbose dehydrogenase [1]; [3],92%
OC[C@@H](O)[C@H](O)[C@@H](O)CO [Xylitol],Effect of the sorbose dehydrogenase on the substrate (in words),sorbose dehydrogenase [2]; [4],little effect
same,Relative activity (%),sorbose dehydrogenase [2]; [5],0.89%
O[C@H]1[C@H](O)[C@@H](O)[C@H](O)[C@@H](O)[C@H]1O [inositol],Effect of the sorbose dehydrogenase on the substrate (in words),sorbose dehydrogenase [2]; [4],little effect
OC[C@@H](O)[C@@H](O)CO [meso-erythritol],Effect of the sorbose dehydrogenase on the substrate (in words),sorbose dehydrogenase [2]; [4],little effect
CO [methanol],Effect of the sorbose dehydrogenase on the substrate (in words),sorbose dehydrogenase [2],little effect
CC(O)CO (centres unmarked) [propylene glycol],Effect of the sorbose dehydrogenase on the substrate (in words),sorbose dehydrogenase [2]; [4],little effect
OC[C@H]1O[C@@](CO)(O[C@H]2O[C@H](CO)[C@@H](O)[C@H](O)[C@H]2O)[C@@H](O)[C@@H]1O [sucrose],Effect of the sorbose dehydrogenase on the substrate (in words),sorbose dehydrogenase [2]; [4],little effect
